# Test results taken from patent US12465618B2, “Compositions and methods for degenerative disc regeneration” (University Health Network, priority 2015, dated 2025).
# Legend:
# Assay type in all cases: cell-based
# [1] = tested on: human degenerative disc NP cells; test: Caspase 9 Lumi-Glo assay, cytokine induced; conditions: 48 hrs
# Procedure: (§1) Apoptosis induced in NP cells (rat and human) as result of treatment with pro-inflammatory cytokines (IL-1β and TNFα) was determined using Caspase 3/7 and Caspase 9 specific Lumi-Glo assays (Promega, Madison). Briefly, NP cells were plated and treated with either IL-1β alone or in combination with TNFα only or in presence of CTGF and TGFβ1 for 48 hrs, followed by addition of specific reagents for Caspase 3/7 and Caspase 9 as per the manufacturer's instructions. Cells were incubated for another 4 hrs at 37° C., and plates were read in a multi-well luminescence plate reader.
# rat NP cells = test: Western blotting of rat NP cells treated with IL-1β/TNFα with or without inhibitors or growth factors; conditions: rat-tail NP cells treated with IL-1β and TNFα, Western blot, FIG. 5g-5h
# Procedure: (§2) After euthanasia, healthy rat lumbar/caudal spine IVDs, injured tail discs and bovine caudal IVD NPs were removed aseptically and the nucleus pulposus (NP) was removed separately and enzymatically digested according to methods established by the present inventors^16. Similarly, human degenerative disc NPs were enzymatically digested using Pronase (0.4%, 1 hr at 37° C.) followed by Collagenase II treatment (0.015%, O/N, 37° C.). The following day, the cells were filtered with a 70p cell strainer and cultured within a hypoxic incubator (NuAire, MN, USA) in 3.5% O2, 5% CO2, in Advanced Dulbecco's modified Eagle's medium (ADMEM) supplemented with 8% fetal bovine serum (FBS) and penicillin and streptomycin (100 U/mL). For treatments, the cells were either cultured in serum free ADMEM (no treatment controls) or treated with interleukin-1β (IL-1β, 10 ng/mL), tumor necrosis factor-alpha (TNFα, 50 ng/mL), connective tissue growth factor (CTGF, 10-100 ng/mL), Wnt-inducible soluble protein 2 (WISP2, 10-100 ng/mL) or transforming growth factor beta 1 (TGFβ1, 5-20 ng/mL) for various time points under hypoxic conditions.
# (§3) Equal amounts of whole cell or tissue lysates prepared using RIPA lysis buffer were subjected to Western blotting as described earlier^18,19. Total lysates (30 μg) were resolved on 10% sodium dodecyl sulphate-polyacrylamide gels (SDS-PAGE) under reducing conditions and then proteins were electro-transferred onto polyvinyledendifluoride (PVDF) membranes (BioRad, CA). After blocking with 5% non-fat powdered milk in Tris-buffered saline (TBS, 0.1 M, pH=7.4), blots were incubated with rabbit or goat polyclonal/mouse monoclonal primary antibodies at 4° C. overnight. […] Blots were washed three times with TTBS for 15 minutes and protein bands were detected by the enhanced chemiluminescence method (BioRad, CA) on Kodak Hyperfilm.
# [2] = tested on: human degenerative disc NP cells; test: Western blotting of human degenerative disc NP cells; conditions: within 24 hrs
# Procedure: as §2, §3
# [3] = tested on: human degenerative disc NP cells; test: Caspase 3/7 Lumi-Glo assay, cytokine induced; conditions: 48 hrs
# Procedure: as §1
# [4] = tested on: rat degenerative disc NP cells; test: Caspase 3/7 Lumi-Glo assay, cytokine induced; conditions: 48 hrs
# Procedure: as §1
substance,measurement,setting,value
"TGFβ1: Human recombinant transforming growth factor beta 1, Peprotech cat #100-21, identified in NCCM",IL-1β and TNFα induced caspase 9 activity,[1],significant reduction
same,"expression of MMP-3, MMP-13 and Cox2 proteins in presence of growth factor",rat NP cells,reduced expression
same,collagen 2 expression (Western blotting),[2],increase
same,cytokine (IL-1β and TNFα)-induced caspase 3/7 activity,[3],significant decrease
same,cytokine (IL-1β and TNFα)-induced caspase 3/7 activity,[4],significant decrease
